These results are taken from PubChem BioAssay (NCI).

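Step 1: Grow cells in 96-well plates. Step 2: Expose to compound for 48 hours at 5 concentrations. Step 3: Interpolate endpoints linearly; if unreached, use highest concentration. GI50 marks 50% less growth. TGI marks complete inhibition of growth.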 Where only a bound is given, the exact number is not on record here.

Experiment in all cases: growth of human tumour cells (NCI), 48 h
Assay [1] relates to LOX IMVI melanoma.
Assay [2] concerns NCI/ADR-RES ovarian.
Assay [3] concerns MOLT-4 leukemia.
Assay [4] relates to ACHN renal.
Assay [5] relates to SF-295 CNS.
In assay [6] the test system is HCT-116 colon.
Assay [7] has as its system DU-145 prostate.
Assay [8] relates to SNB-75 CNS.
The test system of assay [9] is U251 CNS.
Assay [10] concerns HS 578T breast.

In the case of `O=c1[nH]c2ccccc2n1C1CCNCC1`, the GI50 in assay [1], in assay [2], in assay [3], in assay [4], in assay [5] and in assay [6] was > 100000 nM in each case. For the same molecule, the GI50 in [7], in [8], in [9] and in [10] was > 100000 nM each time. Besides, the TGI in assay [1], in assay [2], in [3], in [4], in assay [5] and in [6] was > 100000 nM in each case. Besides, the TGI in assay [7], in assay [8], in assay [9] and in [10] was > 100000 nM in each case.

Turning to `N#CCCNc1nonc1-c1nc2ccccc2n1CC(=O)c1ccc(N)cc1`, the GI50 was 32.6 nM in [1]; < 10 nM in assay [2]; 30.1 nM in assay [3]; 36.2 nM in [4]; < 10 nM in [5]; 28.5 nM in assay [6]. For the same molecule, the GI50 in assay [7] was 28.8 nM; in assay [8] it was 23.2 nM; in assay [9] it was 36 nM; in assay [10], 19.2 nM. For the same molecule, the TGI in [1] is > 100000 nM; in assay [2], 42.9 nM; in assay [4], > 100000 nM; in assay [5] it was > 100000 nM; in [7], 98.4 nM; in assay [8], > 73000 nM. Also, the TGI in [9] and in [10] was > 100000 nM throughout.

As for `O=C(N/N=C/c1ccc(Cl)cc1)c1ccc(NC(=O)c2ccccn2)cc1`, the GI50 is 56100 nM in assay [1]; 16200 nM in assay [2]; > 100000 nM in [3]; 19100 nM in assay [4]; 28700 nM in assay [5]; 11800 nM in [6]. Moreover, the GI50 was 27200 nM in assay [7], 5520 nM in assay [8], 6450 nM in assay [9] and 21100 nM in [10]. The TGI in assay [1] is > 100000 nM; in assay [2], > 100000 nM; in [3], > 100000 nM; in [4] it was 59300 nM; in assay [5], > 100000 nM; in assay [6], > 100000 nM. Further, the TGI was > 100000 nM in [7], 24900 nM in assay [8], 23300 nM in assay [9] and > 100000 nM in [10].

On to `O=S(=O)(NCCCNc1cc(-c2cn(-c3ccccc3)nc2-c2cccc(O)c2)ccn1)c1ccc(C(F)(F)F)cc1`, for which the GI50 was 1670 nM in [1]; 2450 nM in assay [2]; 1830 nM in assay [3]; 3080 nM in assay [4]; 1790 nM in assay [5]; 1440 nM in assay [6]. Besides, the GI50 in assay [7] was 2650 nM; in [8], 1450 nM; in [9], 1280 nM; in [10], 1460 nM. In addition, the TGI turned out to be 3120 nM in assay [1]; 7130 nM in [2]; 5360 nM in assay [3]; 10700 nM in [4]; 3640 nM in assay [5]; 2950 nM in assay [6]. Moreover, the TGI in assay [7] was 8110 nM; in assay [8], 5060 nM; in assay [9], 3260 nM; in assay [10], 5770 nM.

With `COc1cc2c(c3oc(-c4ccc(O)cc4)c(O)c(=O)c13)CCC(C)(C)O2`, the GI50 in assay [1] was 104 nM; in assay [2], 309 nM; in assay [3] it was 191 nM; in assay [4] it was 145 nM; in assay [5], 42.6 nM; in [6] it was 172 nM. For the same molecule, the GI50 in [7] was 295 nM; in [8], 103 nM; in assay [9], 107 nM; in assay [10], 90.3 nM. Moreover, the TGI is 328 nM in [1]; 829 nM in [2]; 194 nM in [5]; 372 nM in [6]; > 44900 nM in assay [7]; 283 nM in assay [8]. For the same molecule, the TGI in assay [9] is 800 nM.

For `COc1cccc2c1nc(C(F)F)n2-c1nc(-c2ccc(NS(=O)(=O)CCN(C)C)cc2)nc(N2CCOCC2)n1`, the GI50 in assay [1] was 176 nM; in assay [2], 434 nM; in assay [3], 123 nM; in assay [4], 115 nM; in [5], 87.5 nM; in [6] it was 456 nM. Further, the GI50 in assay [7] is 162 nM; in assay [8], 24.6 nM; in [9], 454 nM; in assay [10] it was 66.4 nM. Moreover, the TGI stood at 2130 nM in [1]; 33600 nM in assay [2]; 3710 nM in [3]; 11200 nM in assay [4]; 1440 nM in assay [5]; 2980 nM in assay [6]. The TGI turned out to be 11700 nM in assay [7], 282 nM in [8], 5090 nM in assay [9] and 500 nM in [10].

For the molecule `COc1ccc(C2=NN(C(N)=S)C(c3ccc4c(c3)OCO4)C2)cc1` (stereo not given), the GI50 was 2190 nM in [1]; 2900 nM in assay [2]; 3020 nM in [3]; 3580 nM in [4]; 2640 nM in [5]; 2960 nM in assay [6]. For the same molecule, the GI50 in assay [7] is 1940 nM; in [8], 2750 nM; in assay [9] it was 3050 nM; in [10] it was 2820 nM. For the same molecule, the TGI in assay [1] was 4990 nM; in assay [2] it was 12600 nM; in assay [3] it was 34500 nM; in assay [4], > 100000 nM; in assay [5] it was 11900 nM; in assay [6], 22900 nM. For the same molecule, the TGI in assay [7] was determined as 4560 nM; in assay [8], 8510 nM; in assay [9] it was 19600 nM; in [10], 7090 nM.
